Source: PMC2358886, “Evolution of pharmacologic specificity in the pregnane X receptor” (BMC Evolutionary Biology, 2008)
Like-named read-outs stand apart in the source and are kept apart here.

Legend:
[1] = molecular target: T1, zebrafish PXR (Danio rerio, UniProt A5WYG8)
T1 sequence (A5WYG8 144-430): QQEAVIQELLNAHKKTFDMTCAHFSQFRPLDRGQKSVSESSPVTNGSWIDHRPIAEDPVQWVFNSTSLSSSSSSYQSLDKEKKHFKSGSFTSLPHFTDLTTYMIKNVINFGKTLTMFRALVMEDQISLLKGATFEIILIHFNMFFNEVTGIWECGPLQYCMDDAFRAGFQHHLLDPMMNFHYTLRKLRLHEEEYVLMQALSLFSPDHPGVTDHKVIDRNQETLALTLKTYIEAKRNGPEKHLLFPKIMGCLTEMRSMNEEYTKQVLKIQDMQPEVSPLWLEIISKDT

[2] = molecular target: T2, human PXR (Homo sapiens, UniProt O75469); assay: PXR activation luciferase reporter assay, human PXR in HepG2-NTCP cells; conditions: for hPXR Efficacy: relative to 10 μM rifampicin, assigned an efficacy of 1.0
T2 sequence (O75469 1-434): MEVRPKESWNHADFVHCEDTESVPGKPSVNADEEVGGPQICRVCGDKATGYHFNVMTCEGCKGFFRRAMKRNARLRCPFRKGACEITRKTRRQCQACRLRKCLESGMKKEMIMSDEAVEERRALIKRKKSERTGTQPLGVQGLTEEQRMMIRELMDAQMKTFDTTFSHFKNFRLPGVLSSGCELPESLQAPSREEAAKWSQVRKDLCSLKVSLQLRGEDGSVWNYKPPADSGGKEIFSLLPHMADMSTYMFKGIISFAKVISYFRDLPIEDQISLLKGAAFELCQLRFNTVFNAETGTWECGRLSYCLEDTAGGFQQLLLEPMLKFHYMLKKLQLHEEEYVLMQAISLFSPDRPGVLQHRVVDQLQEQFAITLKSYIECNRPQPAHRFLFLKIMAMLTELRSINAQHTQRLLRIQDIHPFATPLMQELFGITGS

[3] = test system: HepG2 cells
[4] = -log(EC50), EC50 in molar units, activation of zebrafish PXR
[5] = -log(EC50), EC50 in molar units, activation of human PXR
[6] = Human PXR EC50 (concentration class, Figure 2A), class read from box colour against the key of Figure 2
[7] = hPXR Activity, -log(EC50), EC50 in molar units, activation of human PXR

SMILES | zfPXR Activity [1, 4] | Toxicity [3] | EC50 [2, 7] [µM] | Toxicity ([3]; human, 24 hr) [µM] | also measured
C[C@]12CC[C@@H](O[C@@H]3O[C@H](C(=O)O)[C@@H](O)[C@H](O)[C@H]3O)C[C@H]1CC[C@@H]1[C@@H]2CC[C@]2(C)C(=O)CC[C@@H]12 [AN18, 5β-Androstan-3α-glucosiduronate-17-one] | None | None |  |  | hPXR Activity [2, 5]: None
C[C@H](CCC(=O)O)[C@H]1CC[C@H]2[C@@H]3CC[C@@H]4C[C@H](OS(=O)(=O)O)CC[C@]4(C)[C@H]3CC[C@]12C [BI41, 5β-Cholanic acid-3α-sulfate] | 4.61 | None |  |  | hPXR Activity [2, 5]: 3.93
CC(=O)O[C@@H]1CC[C@@]2(C)[C@H](CC[C@@H]3[C@@H]2CC[C@]2(C)[C@@H]([C@H](C)CCC(=O)O)CC[C@@H]32)C1 [BI49, 5β-Cholanic acid-3α-acetate] | 5.89 | None |  |  | hPXR Activity [2, 5]: 5.92; hPXR Efficacy [2]: 0.54
COC(=O)CC[C@@H](C)[C@H]1CC[C@H]2[C@@H]3CC[C@@H]4C[C@H](OC(C)=O)CC[C@]4(C)[C@H]3CC[C@]12C [BI50, 5β-Cholanic acid-3α-acetate methyl ester] | None | None |  |  | hPXR Activity [2, 5]: 5.96
C[C@]12CC[C@@H]3c4ccc(O)cc4CC[C@H]3[C@@H]1CC[C@@H]2O [ES1, 1,3,5(10)-Estratrien-3,17β-diol] | None |  | 15.8 | 200 | EC50 [2, 6]: 11 to 50 µM
C[C@]12CC[C@@H]3c4ccc(O)cc4CC[C@H]3[C@@H]1CCC2=O [ES2, 1,3,5(10)-Estratrien-3-ol-17-one] |  |  |  | 200 | 
C[C@]12CC[C@@H]3c4ccc(OC5O[C@H](C(=O)O)[C@@H](O)[C@H](O)[C@H]5O)cc4CC[C@H]3[C@@H]1CC[C@@H]2O (stereo partly drawn) [ES9, 1,3,5(10)-Estratrien-17β-ol-3-glucosiduronate] | None | None |  |  | hPXR Activity [2, 5]: None
CC(=O)Nc1ccc(O)cc1 [MI1, Acetaminophen] |  | None |  |  | 
CC1=C(/C=C/C(C)=C/C=C/C(C)=C/C=C/C=C(C)/C=C/C=C(C)/C=C/C2=C(C)CCCC2(C)C)C(C)(C)CCC1 [MI9, β-Carotene] | None |  | 3.47 | 100 | 
C[C@H]([C@H](O)CCC(C)(C)O)[C@H]1CC[C@@]2(O)C3=CC(=O)[C@@H]4C[C@@H](O)[C@@H](O)C[C@]4(C)[C@H]3CC[C@]12C [MI13, Ecdysone] | None | None |  |  | hPXR Activity [2, 5]: None
CCOC(=O)c1ccccc1N [MI14, Ethyl-2-aminobenzoate] | None |  |  |  | hPXR Activity [2, 5]: None
Nc1nc2ncc(CNc3ccc(C(=O)N[C@@H](CCC(=O)O)C(=O)O)cc3)nc2c(=O)[nH]1 [MI16, Folic acid] |  | None |  |  | zfPXR Activity [1]: None
C/C=C1\C(=O)C[C@H]2[C@@H]3CCC4=CC(=O)CC[C@]4(C)[C@H]3CC[C@]12C [MI17, Guggulsterone] |  | None |  |  | zfPXR Activity [1]: None
CC[C@H](C)C(=O)O[C@H]1CCC=C2C=C[C@H](C)[C@H](CC[C@@H]3C[C@@H](O)CC(=O)O3)[C@H]21 [MI20, Mevastatin] | None |  | 5.89 | 15 | 
CC(=O)O[C@H]1C(=O)[C@@]2(C)[C@H]([C@H](OC(=O)c3ccccc3)[C@]3(O)C[C@H](OC(=O)[C@H](O)[C@@H](NC(=O)c4ccccc4)c4ccccc4)C(C)=C1C3(C)C)[C@]1(OC(C)=O)CO[C@@H]1C[C@@H]2O [MI24, Paclitaxel] |  |  | 12 | 100 | zfPXR Activity [1]: None
COC(=O)[C@H]1[C@H]2C[C@@H]3c4[nH]c5cc(OC)ccc5c4CCN3C[C@H]2C[C@@H](OC(=O)c2cc(OC)c(OC)c(OC)c2)[C@@H]1OC [MI30, Reserpine] |  |  |  | 50 | 
CO[C@H]1/C=C/O[C@@]2(C)Oc3c(C)c(O)c4c(O)c(c(/C=N/N5CCN(C)CC5)c(O)c4c3C2=O)NC(=O)/C(C)=C\C=C\[C@H](C)[C@H](O)[C@@H](C)[C@@H](O)[C@@H](C)[C@H](OC(C)=O)[C@@H]1C [MI32, Rifampicin] | None |  |  | 200 | 
CCOP(=O)(OCC)C(=Cc1cc(C(C)(C)C)c(O)c(C(C)(C)C)c1)P(=O)(OCC)OCC [MI33, SR12813] | None | 10 µM |  |  | 
Cc1c(C)c2c(c(C)c1O)CC[C@@](C)(CCC[C@H](C)CCC[C@H](C)CCCC(C)C)O2 [MI37, α-Tocopherol] |  |  | ~50.1 | 100 | zfPXR Activity [1]: None
C=C1/C(=C\C=C2/CCC[C@]3(C)[C@@H]([C@H](C)CCCC(C)(C)O)CC[C@@H]23)C[C@@H](O)C[C@@H]1O [MI41, 1α,25-Dihydroxyvitamin D3] |  |  |  | 50 | 
C=C1/C(=C\C=C2/CCC[C@]3(C)[C@@H]([C@H](C)CCCC(C)C)CC[C@@H]23)C[C@@H](O)C[C@@H]1O [MI43, 1α-Hydroxyvitamin D3] | None |  |  | 50 | 
CC1=C(C/C=C(\C)CCC[C@H](C)CCC[C@H](C)CCCC(C)C)C(=O)c2ccccc2C1=O [MI44, Vitamin K1] | None |  | 10.2 | 100 | 
C[C@]12C[C@H](O)[C@H]3[C@@H](CCC4=CC(=O)CC[C@@]43C)[C@@H]1CC[C@@H]2C(=O)CO [PR3, 4-Pregnen-11β,21-diol-3,20-dione] |  | None | 10 |  | Zebrafish PXR EC50 (concentration class, Figure 2B) [1]: Inactive; zfPXR Activity [1]: None; EC50 [2, 6]: < 10 µM
C[C@]12CCC(=O)C=C1CC[C@@H]1[C@@H]2CC[C@@]2(C)[C@H]1CC[C@]2(O)C(=O)CO [PR4, 4-Pregnen-17,21-diol-3,20-dione] | None | None | 22.9 |  | EC50 [2, 6]: 11 to 50 µM
C[C@]12CCC(=O)C=C1CC[C@@H]1[C@@H]2[C@@H](O)C[C@]2(C=O)[C@@H](C(=O)CO)CC[C@@H]12 [PR5, 4-Pregnen-11β,21-diol-3,18,20-trione] | None | None | 55 |  | EC50 [2, 6]: 51 to 200 µM
C[C@]12CCC(=O)C=C1CC[C@@H]1[C@@H]2C(=O)C[C@@]2(C)[C@H]1CC[C@]2(O)C(=O)CO [PR6, 4-Pregnen-17,21-diol-3,11,20-trione] |  |  | 69.2 | 200 | Zebrafish PXR EC50 (concentration class, Figure 2B) [1]: Inactive; zfPXR Activity [1]: None; EC50 [2, 6]: 51 to 200 µM
CC(=O)[C@H]1CC[C@H]2[C@@H]3CCC4=CC(=O)CC[C@]4(C)[C@H]3CC[C@]12C [PR7, 4-Pregnen-3,20-dione] | None |  | 14.8 | 200 | EC50 [2, 6]: 11 to 50 µM
CC(=O)[C@@]1(O)CC[C@H]2[C@@H]3CCC4=CC(=O)CC[C@]4(C)[C@H]3CC[C@@]21C [PR8, 4-Pregnen-17-ol-3,20-dione] |  |  |  |  | Toxicity ([3]; human): None
CC(=O)[C@H]1CC[C@H]2[C@@H]3CC=C4C[C@@H](O)CC[C@]4(C)[C@H]3CC[C@]12C [PR12, 5-Pregnen-3β-diol-20-one] | 6.32 | None |  |  | zfPXR Efficacy ([1]; relative to 20 μM 5α-androstan-3α-ol, assigned an efficacy of 1.0): 2.05; hPXR Activity [2, 5]: 5.64; hPXR Efficacy [2]: 1.26
